Tested on: carrageenan-induced hind paw edema
Assay: carrageenan-induced hind paw edema (anti-inflammatory effect in vivo)
Set-up: species or system Wistar rats
Details: for anti-inflammatory effect in vivo (in words): Wistar rats, 10 mg/kg; for time up to which the anti-inflammatory effect increased: after oral administration, diclofenac 4 mg/kg, Zn(II) complex 10 mg/kg, measured at 1-6 hours; for percent inhibition of inflammation (paw edema) vs control group: male Wistar rats, half an hour before carrageenan
Method: The crystalline zinc complex was evaluated for anti-inflammatory effects in vivo in Wistar rats, compared to the known NSAID diclofenac as a standard treatment.
Eighteen male Wistar rats (weighing from 200-250 g) were obtained from the “Animal Care and Use Center of College of Pharmacy at King Saud University, Riyadh, Saudi Arabia”. Institutional guidelines were followed for these studies. All rats were provided standard laboratory conditions of “temperature and relative humidity. The rats were kept in plastic cages and given free access to standard laboratory pellet diet and water ad libitum.
The anti-inflammatory studies were performed by the standard carrageenan-induced hind paw edema method of inducing acute swelling, known in the industry and widely reported in the literature. The rats were randomly divided into 3 groups of 6 rats. Group I rats were given carrageenan only, and served as control group. Group II and III rats were given standard diclofenac and the studied Zn(II) complex, respectively.
The standard diclofenac (4 mg/kg) and the Zn(II) complex (10 mg/kg) were administered orally half an hour before sub plantar injection of carrageenan in the right paw. Paw edema was induced by injecting 0.1 ml of a 1% w/v suspension of carrageenan in purified water. The initial and final paw volume of each rat was measured at regular interval of time (1, 2, 3, 4, 5 and 6 hours) after injection, using a digital Plethysmometer (Ugo Basile, Italy). The percent inhibition of edema produced by the diclofenac- and zinc(II) complex-treated groups was determined with respect to the control group, using the standard formula used with this type of test, as known in the industry and reported in the literature. The inhibition of inflammation was analyzed statistically by applying a student t-test, using the MS Excel 2010 spreadsheet program. A P value <0.05 was considered statistically significant.

Compound | anti-inflammatory effect in vivo (in words) (10 mg/kg oral) | anti-inflammatory effect in vivo (in words) (10 mg/kg oral, listed as zinc complex) | time up to which the anti-inflammatory effect increased | percent inhibition of inflammation (paw edema) vs control group (10 mg/kg oral, 6 hours post oral administration) | percent inhibition of inflammation (paw edema) vs control group (4 mg/kg oral, 5 hours past oral administration)
bis(chloro)-(N,N′-(2,2-dimethylpropane-1,3-diyl)bis(1-(2-chlorophenyl)methanimine))-zinc(II) complex [Zn(II) complex] | good anti-inflammatory effect | good degree of anti-inflammatory activity | about 6 hours | 56.39% | –
O=C(O)Cc1ccccc1Nc1c(Cl)cccc1Cl [diclofenac, reference compound] | – | – | about 5 hours | – | 82.31%

Source: US10144748B1, “Anti-inflammatory zinc(II) complex” (KING SAUD UNIVERSITY, priority 2018, dated 2018)
